Entries after “also recorded” stand apart in the source; their conditions may differ.
Experiments:
WT TMEM55B region 80-166 = assay: In vitro pulldown of untagged TMEM55B with His-tagged bait peptides; type: binding; conditions: 10 μM bait, 10 μM prey, Ni2+-agarose, 20 mM Tris pH 8.0, 300 mM NaCl, 20 mM imidazole, 15 minutes; SDS-PAGE, Coomassie; qualitative
Text: (§1) Figure 5: In vitro pulldowns of TMEM55B with TBM peptides. (A) Domain organization of TMEM55B interactors depicting the sequence context of the TBM. Regions that are α-helical have been drawn as cylinders; α/βfolds are shown as rectangles; and unstructured segments are zigzag lines. (B) Cartoon depiction of the in vitro pulldown strategy using His-tagged peptides. […] As a control, the R151E variant of TMEM55B was used, which abolishes the interactions with RILPL1 (bottom panel). […] Protein/peptide concentrations were 10μM (see Methods) and visualization was enabled by Coomassie Brilliant Blue G250.
(§2) Given that the TBMs reside in flexible regions of the adaptor proteins (Figure 5A), peptides should be able to mimic their interactions with TMEM55B. Peptides corresponding to the potential TBMs were synthesized with an N-terminal hexahistidine tag to enable in vitro pulldowns of TMEM55B (80-166; Figure 5B). Slightly extended peptides beyond the minimal TBMs were generated to preclude any structural or conformational restrictions on the interaction with TMEM55B. The peptide TBM from RILPL1 was used as a positive control, and the mutant R151E™ of TMEM55B provided a negative control. Peptides run on conventional SDS-PAGE gels are generally not visible in this assay.
In vitro pulldowns were conducted using hexahistidine tagged peptides of interacting proteins as bait, as described in dx.doi.org/10.17504/protocols.io.dm6gpqk91lzp/v2. If not stated otherwise 10μM of bait peptide or the hexahistidine tagged PH domain of OCRL was mixed with 10μM of prey TMEM55B80-166 or TMEM55B80-160 in 1.5 mL centrifuge tubes with 25 μl Ni^2+-agarose resin in a final volume of 1ml of binding buffer (20 mM Tris pH 8.0, 300 mM NaCl, 20mM Imidazole, 10 mM β-mercapotoethanol). The reaction mixture was subjected to gentle shaking for 15 minutes. The resin was collected by gentle centrifugation (1,000 rpm) and washed 3 times with 1 ml of the binding buffer. Following release of proteins from the resin with 50μl elution buffer (20 mM Tris-Cl pH 8.0, 300 mM NaCl, 200mM imidazole), samples were subjected to SDS-PAGE and stained with Coomassie Brilliant Blue[26].

R151E variant of TMEM55B = assay: In vitro pulldown of TMEM55B R151E variant with His-tagged bait peptides (negative control); type: binding; conditions: 10 μM bait, 10 μM prey, Ni2+-agarose, 20 mM Tris pH 8.0, 300 mM NaCl, 20 mM imidazole, SDS-PAGE, Coomassie, qualitative
Text: as §1
as §2, with “assay. […]” for “assay.”

Sequence	pulldown of untagged WT TMEM55B (80-166) by His-tagged bait (WT TMEM55B region 80-166)	pulldown of R151E variant of TMEM55B by His-tagged bait (R151E variant of TMEM55B)
HHHHHHGSDDLEQATEALDS [WDR81, His-tagged WDR81 657-668 TBM peptide used as pulldown bait]	interact with TMEM55B	–
HHHHHHGSGYTEQGQEALQHL [His-tagged RILPL1 peptide, RILPL1 391-403 TBM peptide with N-terminal hexahistidine tag; direct pulldown, ITC]	clear band	abolished
HHHHHHGSTAEEATEATEG [JIP4, His-tagged JIP4 887-897 TBM peptide used as pulldown bait]	interact with TMEM55B	–
HHHHHHGSVQEAEETLLID [OCRL, His-tagged peptide corresponding to the TBM of OCRL, residues 65-75]	failed to pulldown TMEM55B; also recorded: did not significantly interact	–
HHHHHHSQSTEEATEATEVPD [JIP3, His-tagged JIP3 889-903 TBM peptide used as pulldown bait]	interact with TMEM55B	–

Source: publication doi:10.1101/2025.08.19.670962, “Structural basis for binding of RILPL1 to TMEM55B reveals a lysosomal platform for adaptor assembly through a conserved TBM motif” (bioRxiv, 2025)
